Assay results from patent US11873319B2, “Cyclic di-nucleotide induction of type I interferon” (The Regents of the University of California, priority 2013, dated 2024).

Assays:
variant STING alleles = assay: UV crosslinking binding assay of variant STING alleles to 32P-c-di-GMP; design: species or system mouse and human; details: lysates of transfected 293T cells, FIG. 3B
Experimental: FIG. 1, panels A-F show the variable responsiveness of human STING variants to cyclic-di-nucleotides maps to arginine 232. (Panel A) THP-1 cells were transduced with vectors encoding an shRNA targeting STING or a control shRNA. Cells were then stimulated with cyclic-di-GMP (cdG), dsDNA, cyclic-di-AMP (cdA), poly-inosine:cytosine (pI:C), or Sendai Virus, and induction of human interferon-β mRNA was assessed by quantitative reverse transcriptase PCR. (Panel B) Western blotting confirmed that knockdown of STING was effective. (Panel C) HEK293T cells were transfected with the indicated amounts of various mouse (m) or human (h) STING expression plasmid and then stimulated 6 h later by transfection with synthetic cdG (5 μM). […] STING activation was assessed by use of a co-transfected IFN-luciferase reporter construct. […] IFN induction was measured by qRT-PCR. ND, not detected. […] Binding was quantified by autoradiography. […]
(Panel A) 293T cells were transfected with the indicated alleles of mouse (m)STING or human (h)STING and were then stimulated with c-di-GMP (cdG). STING activity was detected by the induction of a co-transfected IFN-luciferase reporter construct and expressed as fold-induction over luciferase activity of unstimulated cells. (Panel B) Lysates of transfected 293T cells were UV crosslinked in the presence of α32P-c-di-GMP, resolved by SDS-PAGE, and then analyzed by autoradiography. […]

[1] = human clinical trials; cited from earlier work
hSTING = hSTING (Homo sapiens, UniProt Q86WV6); details: Conlon et al.; cited from earlier work
Chain of hSTING (Q86WV6 whole entry): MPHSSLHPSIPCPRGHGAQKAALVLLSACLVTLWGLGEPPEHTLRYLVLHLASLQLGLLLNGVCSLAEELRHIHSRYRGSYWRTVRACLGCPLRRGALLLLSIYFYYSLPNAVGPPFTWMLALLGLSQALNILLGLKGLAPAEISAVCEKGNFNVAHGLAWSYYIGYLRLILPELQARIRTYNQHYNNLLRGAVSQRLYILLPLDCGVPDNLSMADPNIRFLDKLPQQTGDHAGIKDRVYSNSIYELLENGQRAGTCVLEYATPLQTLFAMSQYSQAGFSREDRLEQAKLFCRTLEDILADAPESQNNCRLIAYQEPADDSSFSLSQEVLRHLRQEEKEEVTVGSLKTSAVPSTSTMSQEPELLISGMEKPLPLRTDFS

Row | Compound | binding to variant STING alleles (variant STING alleles) | efficacy in humans [1] | stimulation of hSTING (hSTING)
1 | Nc1nc2c(ncn2[C@@H]2O[C@@H]3COP(=O)(O)O[C@H]4[C@@H](O)[C@H](n5cnc6c(=O)[nH]c(N)nc65)O[C@@H]4COP(=O)(O)O[C@H]3[C@H]2O)c(=O)[nH]1 [cyclic-di-GMP] | bound |  | 
2 | Cc1ccc2c(=O)c3cccc(CC(=O)O)c3oc2c1C [DMXAA] |  | not found to be efficacious | unable to stimulate
